Measurements from article doi:10.1101/2025.11.05.686689v1 (biorxiv, 2025).

Target: CAPON (NOS1AP), recombinant, C-terminal His tag (Homo sapiens, UniProt O75052)
Assay: microscale thermophoresis
Assay type: binding

Chain of CAPON (NOS1AP), recombinant, C-terminal His tag (O75052 whole entry): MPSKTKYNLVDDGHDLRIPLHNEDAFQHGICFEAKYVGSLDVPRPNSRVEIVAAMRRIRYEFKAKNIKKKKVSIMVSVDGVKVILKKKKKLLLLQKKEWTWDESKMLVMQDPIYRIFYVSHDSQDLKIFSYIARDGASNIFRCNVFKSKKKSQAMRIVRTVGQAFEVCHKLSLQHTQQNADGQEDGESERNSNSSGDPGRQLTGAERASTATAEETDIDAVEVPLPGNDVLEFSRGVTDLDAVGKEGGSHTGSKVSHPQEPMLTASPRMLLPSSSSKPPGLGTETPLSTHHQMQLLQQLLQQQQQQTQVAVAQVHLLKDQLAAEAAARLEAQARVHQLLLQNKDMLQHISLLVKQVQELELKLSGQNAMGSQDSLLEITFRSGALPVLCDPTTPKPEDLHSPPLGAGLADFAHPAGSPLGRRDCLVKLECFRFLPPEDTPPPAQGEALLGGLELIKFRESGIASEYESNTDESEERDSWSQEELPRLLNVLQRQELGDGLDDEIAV

`COc1ccc(NC(=O)c2ccco2)cc1NC(=O)c1cc2ccccc2cc1OC` [MA32] showed a Kd of 74 ± 15 µM.
